Test system: Methylophilus methylotrophus amidase (acylamide amido hydrolase E.C. No. 3-5-1-4)
Assay: Methylophilus methylotrophus amidase properties (Km)
Assay type: biochemical
Conditions: amidase induced in Methylophilus methylotrophus; substrate as named

Structure (SMILES) | Km
CC(N)=O [Acetamide] | 0.2 mM
C=CC(N)=O [Acrylamide] | 10 mM
